We go through 106 molecules from PubChem BioAssay AID651717 (Broad Institute, 2012).

In this experiment the test system is mESC Bmi1-luciferase reporter, firefly/renilla ratio, 24 h. Briefly: Bmi1-luciferase reporter activators in mESC, dose response, esBAF inhibitor project, mouse embryonic stem cells, cherry-pick (AID 651717).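 Note: luciferase knocked into Bmi1 locus with EF-1a renilla as cell number control; rising ratio signals esBAF inhibition which derepresses Bmi1.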 Background: Reporter assays use an easily measured gene product as a stand-in for the process of interest.
For the molecule `CN(C)c1ccc(C=Cc2nccc3ccccc23)cc1`, the AC40 was 1.65 µM.

Consider `COC(=O)c1ccc(NC(=O)c2cc3sccc3n2C)cc1`, for which the AC40 is 6.75 µM.

As for `O=C(CCc1ccccc1)Nc1ccc(F)cc1F`, the AC40 is 7.22 µM.

As to `CN(C)c1ccc(CN(C(=O)c2cc3ccccc3oc2=O)C2CCS(=O)(=O)C2)cc1` (stereo unspecified), the AC40 was 3.62 µM.

Consider `Cc1ccsc1CN(C)C(=O)C1CCC(=O)N(CCc2cccc(F)c2)C1` (stereo unspecified), for which the AC40 was 5.77 µM.

For the molecule `Cc1noc(C)c1COC(=O)c1cc(C)n(-c2ccccc2)c1C`, the AC40 is 10 µM.

`Cc1noc(C)c1C(=O)Nc1nc(-c2cc(F)ccc2F)cs1`: the AC40 was 6.63 µM.

Regarding `COc1ccc(-c2cn3c(C)c(C(=O)NC(C)(C)C)sc3n2)cc1`, the AC40 was 1.02 µM.

As for `Cc1ccc(C(=O)Nc2ccc3c(c2)OCO3)cc1S(=O)(=O)N1CCCCC1`, the AC40 is 1.69 µM.

For the molecule `Clc1ccc(-c2nc3ccc(Cl)cn3c2Cc2ccsc2)cc1`, the AC40 is 9.87 µM.

`Cc1ccc(C(=O)NNC(=O)c2ccc3ccccc3c2)cc1`: the AC40 was 7.86 µM.

For the molecule `O=C(Cc1ccccn1)c1ccc(Cl)cc1`, the AC40 was 3.14 µM.

With `Cc1ccc(S(=O)(=O)N(C)CC(=O)Nc2cc(C)ccn2)cc1`, the AC40 was 9.84 µM.

As to `COc1ccc(NC(=O)c2csc3c2CCCC3)cc1`, the AC40 was 0.459 µM.

With `Cc1ccc(C)c(OCc2nc3ccccc3[nH]2)c1`, the AC40 was 5.29 µM.

Consider `COc1cccc(NC(=O)c2sc3nc4n(c(=O)c3c2C)CCC4)c1`, for which the AC40 is 2.73 µM.

With `CN(C)c1ccc(-c2csc(C(O)c3ccc(F)cc3)n2)cc1` (stereo unspecified), the AC40 was 1.63 µM.

With `COC(=O)N1CCCC(c2cc(C(=O)Nc3ccccc3Cl)no2)C1` (stereo unspecified), the AC40 was 3.3 µM.

Regarding `CC1CCCC(C)N1CCCNC(=O)c1ccc2nc(N3CCCCC3)sc2c1` (stereo unspecified), the AC40 was 9 µM.

Regarding `CN(C)c1ccccc1-c1csc(N2CCC(C(N)=O)CC2)n1`, the AC40 was under 0.26 µM.

On to `CS(=O)(=O)c1ccccc1C(=O)Nc1ccc(-c2nc3ccccc3o2)cc1`, for which the AC40 is 4.29 µM.

`CC(NC(=O)c1cc(COc2cccc(C(F)(F)F)c2)on1)c1nccs1` (stereo unspecified): the AC40 is 6.45 µM.

For `COc1cccc(N2CCN(C(=O)c3ccc4nc(N5CCCCC5)sc4c3)CC2)c1`, the AC40 was 5.88 µM.

As to `CCC(C)c1ccc(NC(=O)C2CC2)cc1` (stereo unspecified), the AC40 was 5.85 µM.

For the molecule `Cc1ccc(CNC(=O)C2CCC(=O)N(CCc3ccc(Cl)cc3)C2)cc1` (stereo unspecified), the AC40 was 5.36 µM.

For the molecule `O=C(c1csc(Nc2ccccc2Cl)n1)N1CCCC1`, the AC40 was 1.07 µM.

`O=C(Cc1ccc(Cl)cc1)c1ccccc1`: the AC40 is 1.84 µM.

Regarding `Cc1cc(C(=O)Nc2sc(C)c(-c3ccc(F)cc3)c2C(N)=O)no1`, the AC40 was 0.612 µM.

For `COc1ccc(C2=Nc3ccccc3NC(=O)C2N(C(=O)c2cnc(C)cn2)c2ccc(N3CCOCC3)cc2)cc1` (stereo unspecified), the AC40 was 21.8 µM.

In the case of `CO[C@H]1CN(C)C(=O)c2cc(NC(=O)NC(C)C)ccc2OC[C@H](C)N(Cc2ccc(-c3ccccn3)cc2)C[C@@H]1C`, the AC40 was 0.871 µM.

For the molecule `Clc1ccc(N/N=C/c2cccnc2)cc1`, the AC40 is 2.59 µM.

As to `Cc1cc(NC(=O)Nc2ccc3c(ccn3C)c2)sn1`, the AC40 is 5.14 µM.

As for `Cc1ccc(NC(=O)NC2CCCCCCC2)cc1C`, the AC40 is 4.22 µM.

Take `COc1ccc(CNC(=O)COc2ccccc2C(=O)c2cnn(-c3ccccc3)c2)cc1OC`: the AC40 was 0.642 µM.

In the case of `N#Cc1nc(COc2ccccc2)oc1N1CCCCC1`, the AC40 is 15.6 µM.

On to `O=C(Nc1ccccc1)c1cc(C2CCCN(C(=O)CCc3ccccc3)C2)on1` (stereo unspecified), for which the AC40 was 5.03 µM.

As for `COC(=O)c1c(-c2ccc(SC)cc2)sc2ccccc12`, the AC40 was 14.3 µM.

`CCc1c(C(=O)OCc2ccccc2)[nH]c(C)c1C`: the AC40 was 2.03 µM.

Take `COc1ccc(C2Nc3ccccc3C(=O)N2c2ccc(C)cc2)cc1Cn1nc(C)c([N+](=O)[O-])c1C` (stereo unspecified): the AC40 is 12.6 µM.

On to `CCc1nnc(NC(=O)c2ccc3c(=O)n4c(nc3c2)CCC4)s1`, for which the AC40 was 2.51 µM.

Take `O=C(O)c1cc(-c2ccc(-c3c(-c4ccc5c(c4)OCO5)noc3-c3ccsc3)cc2)nc2ccccc12`: the AC40 is 6.89 µM.

Regarding `COc1ccc(Nc2ncnc3sc(C)cc23)cc1`, the AC40 was 5.43 µM.

In the case of `COc1cc(CNc2ccc(S(N)(=O)=O)cc2)ccc1OCc1ccccc1F`, the AC40 is 1.87 µM.

On to `CCN(CC)C(=O)Oc1ccc2c(=O)c(-c3ccc(OC)cc3)coc2c1`, for which the AC40 was 3.7 µM.

With `Nc1ccc2c(c1)Cc1cc(N)c(Cl)cc1-2`, the AC40 was 3.41 µM.

In the case of `CCCCN(Cc1ccccc1)c1ncnc2nc[nH]c12`, the AC40 is 10.1 µM.

As for `COc1ccccc1C(=O)NCC(=O)Nc1ccc2c(c1)CCC2`, the AC40 was 3.24 µM.

In the case of `CC(=O)c1c(C)[nH]c(C(=O)OCc2ccc(Br)cc2)c1C`, the AC40 was 6.96 µM.

As to `Cc1cccc(OCc2nc3ccccc3n2C)c1`, the AC40 is 6.7 µM.

Take `COC(=O)c1c(-c2ccc(SC)cc2)sc2ccc(OC)cc12`: the AC40 is 0.613 µM.

On to `COc1ccc(C2CC2/C(=N/OC(=O)c2cccs2)c2ccccc2)cc1` (stereo unspecified), for which the AC40 is 2.9 µM.

Regarding `COc1cccc(NC(=O)N2CCN(c3cccc(C)c3C)CC2)c1`, the AC40 was 4.88 µM.

Consider `O=C1c2ccccc2C2N1CCCN2C(=O)c1sc2ccccc2c1Cl` (stereo unspecified), for which the AC40 is 4.3 µM.

Take `c1ccc(-c2ccc3[nH]ccc3c2)cc1`: the AC40 was 3.07 µM.

For `Cc1ccc2c(CN(C)Cc3ccccc3)cc(=O)oc2c1`, the AC40 is 1.82 µM.

With `COc1cc(Cl)ccc1OCc1cc(C(=O)N(C)Cc2cccc3cnccc23)no1`, the AC40 is 7.79 µM.

`Cc1ccc(NCC(=O)N/N=C/c2cc3ccccc3nc2Cl)cc1`: the AC40 is 30.6 µM.

Regarding `COc1ccc(Cc2nc(-c3cccc(C)c3)no2)cc1`, the AC40 was 3.63 µM.

For the molecule `Cn1c(-c2ncc(F)cc2F)cc2onc(-c3c(F)cccc3Cl)c2c1=O`, the AC40 is 0.47 µM.

On to `Clc1ccc(-n2nnc(-c3ncc[nH]3)n2)cc1Cl`, for which the AC40 was 11.6 µM.

Take `COc1ccc(-c2cc3ccccc3s2)cc1[C@H]1[C@H]2C=CC[C@@H](C)[C@@H]2C(=O)N1Cc1ccccc1`: the AC40 is 1.53 µM.

With `CCn1c(COc2ccc(OC)cc2)nc2ccccc21`, the AC40 was 2.81 µM.

In the case of `O=C(N/N=C/c1cnc2ccccc2n1)c1cccc(F)c1`, the AC40 was 4.89 µM.

For `c1ccc2nc3c(ccc4ccccc43)cc2c1`, the AC40 is 0.939 µM.

Turning to `COc1ccc(-c2nnn(Cc3ccccc3)n2)cc1`, the AC40 was 0.621 µM.

As to `Cc1ccc(OCc2cnc(Cl)s2)c(C)c1`, the AC40 is 4.12 µM.

On to `COc1ccc(-c2csc(C(O)c3ccc(F)cc3)n2)cc1` (stereo unspecified), for which the AC40 was 1.54 µM.

As for `COc1ccc(NC(=O)Nc2cccc(C)n2)cc1`, the AC40 was 3.45 µM.

On to `N#CC(c1ccccc1O)N1N=C(c2ccccc2)CC1c1ccccc1` (stereo unspecified), for which the AC40 was 1.43 µM.

Turning to `COc1ccc(Cc2nnc(NC(=O)c3ccc(OC)cc3OC)s2)cc1`, the AC40 is 12.5 µM.

`Cc1cc(N2CCCCC2)nc2ccc(NC(=O)CCC(=O)NCCC(C)C)cc12`: the AC40 is 16.6 µM.

`Cc1ccc(NCSc2ccc(Cl)cc2)cc1`: the AC40 is 1.66 µM.

As for `CS(=O)(=O)c1ccc2nc(NC(=O)c3ccccc3Br)sc2c1`, the AC40 is 6.16 µM.

Consider `CC(=O)N(/N=C1\Sc2ccccc2C1=O)c1ccccc1`, for which the AC40 is under 0.26 µM.

Regarding `COC(=O)c1ccc(CN2C(=O)NC3(CCCCC3)C2=O)cc1`, the AC40 is 7.87 µM.

For `COc1ccc(CNc2nc(NCc3ccc(OC)cc3)n(C(=O)c3ccccc3[N+](=O)[O-])n2)cc1`, the AC40 was 18.8 µM.

Turning to `COc1ccc(NC(=O)c2cc(-c3ccccc3Cl)on2)cc1`, the AC40 was 11.8 µM.

On to `c1ccc(-c2csc(Nc3cccnc3)n2)nc1`, for which the AC40 is 4.74 µM.

`N#CCc1nc(CSc2nc3ccccc3s2)cs1`: the AC40 is 9.73 µM.

Take `Cc1ccc2c(COC(=O)C34CC5CC(CC(C5)C3)C4)cc(=O)oc2c1`: the AC40 was 3.95 µM.

Take `S=C1NC(c2ccccc2)=NCN1c1ccccc1`: the AC40 was 17.5 µM.

Consider `CCCS(=O)(=O)N1CCC(C(=O)NC2CCC(C)CC2)CC1` (stereo unspecified), for which the AC40 is 3.19 µM.

Take `C=CCN(C(=O)C1CC(=O)N(C2CCCC2)C1)c1nc(-c2ccc(S(C)(=O)=O)cc2)cs1` (stereo unspecified): the AC40 was 34.4 µM.

In the case of `COc1ccccc1NC(=O)CSc1nc2sc3c(c2c(=O)n1-c1ccccc1)CCN(C)C3`, the AC40 is 19.1 µM.

`CCCCSc1nnc(-c2ccc(OC)cc2)n1C`: the AC40 is 9.08 µM.

As for `Cc1ccc(OCc2cc(C(=O)NC(C)Cc3cccnc3)no2)cc1C` (stereo unspecified), the AC40 was 1.8 µM.

Consider `CCc1sc(C(=O)Nc2ncccc2C)cc1C`, for which the AC40 was 20.1 µM.

As to `Cc1ccccc1C(=O)c1cccn1CC(=O)NCc1ccccc1Cl`, the AC40 is 9.17 µM.

With `O=C(Nc1ccc2c(c1)OCO2)c1cnc(Cl)c(Cl)c1`, the AC40 was 1.74 µM.

With `COc1ccc2[nH]cc(C(=O)CNc3nc(C)cs3)c2c1`, the AC40 was 10.3 µM.

Turning to `Clc1cccc2sc(N3CCCCC3)nc12`, the AC40 was 5.75 µM.

As to `CCCCCCCSc1ncnc2[nH]ncc12`, the AC40 was 17.1 µM.

Take `O=C1CCCc2cc3c(ccc4ccccc43)cc21`: the AC40 was 3.18 µM.

Take `COc1ccc(CC(=O)Nc2ccc(-c3cn4ccc(C)cc4n3)cc2)cc1`: the AC40 is 18.8 µM.

For the molecule `N/C(=N\OC(=O)c1cccnc1)c1ccccc1Cl`, the AC40 was 23.6 µM.

In the case of `CCc1ccccc1NC(=O)c1cc(-c2cccc(O)c2)on1`, the AC40 is 5.03 µM.

On to `O=C(CC1CCCC1)Nc1ccc(Br)cc1`, for which the AC40 is 16 µM.

Turning to `Cc1sc2c(c1C)CN(C(C)(C)C)CN2C(=O)c1ccccc1`, the AC40 is 1.37 µM.

As to `COc1cccc(Nc2nc(-c3sc(C)nc3C)cs2)c1`, the AC40 is 8.61 µM.

`O=C(N/N=C/c1cccs1)c1cccc2cc[nH]c12`: the AC40 is 6.06 µM.

As to `CSc1nnc(NC(=O)c2cc3ccccc3oc2=O)s1`, the AC40 was 5.97 µM.

Take `Nc1c(Cl)cc(N=Nc2ccccc2)cc1Cl`: the AC40 is 3.27 µM.

Regarding `Cc1ccc(NC(=O)Nc2ccc(F)c(Cl)c2)cc1`, the AC40 is 1.85 µM.

With `O=C(Nc1ccc(Cl)cc1Cl)c1csc(-c2cccnc2)n1`, the AC40 is 6.82 µM.

For `CC(C)(C)C(=O)N1CCN(c2nc3ccc(Br)cc3s2)CC1`, the AC40 was 1.53 µM.

`COc1ccc(OCc2cc(C(=O)N3C[C@H]4CC[C@H]3C4)no2)c(Cl)c1`: the AC40 is 9.24 µM.
